Results taken from patent publication US6465654B2, “Process for preparing 1-substituted, 2-substituted 1H-imidazo[4, 5-c]quinoline-4-amines” (3M Innovative Properties Company, priority 1991, dated 2002).

How the values were obtained:
interferon = experiment: Interferon induction in mice; type: in vivo; details: mouse serum
How it was run: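 Interferon titres expressed as α/β reference units/mL relative to mouse MU-1-IF standard, "<" denoting undetectable. Pooled serum came from mouse groups bled at 1, 2 or 4 h, frozen at −70° C, analysed like human-cell samples.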

[1] = system: vesicular stomatitis virus (VSV); experiment: microbe, parasite or virus in culture; type: cell-based; details: Vesicular stomatitis virus, read-out: VSV Yield Inhibition
interferon-α [2] = experiment: Interferon-α induction in human cells, PBM; type: cell-based; details: 24 hours
interferon-α [3] = experiment: Interferon-α induction in human cells, diluted whole blood; type: cell-based; details: 24 hours

Structure (SMILES): CCOCc1nc2c(N)nc3ccccc3c2n1CCCOC [Example 44, 2-Ethoxymethyl-1-(3-methoxypropyl)-1H-imidazo[4,5-c]quinolin-4-amine]
- Interferon induction in mice (interferon; oral 0.3 mg/kg, 1 hr): ˜570 Reference Units/mL
- Interferon induction in mice (interferon; oral 0.3 mg/kg, 2 hr): 510 Reference Units/mL
- Interferon induction in mice (interferon; oral 0.3 mg/kg, 4 hr): <260 Reference Units/mL
- Interferon induction in mice (interferon; oral 1 mg/kg, 1 hr): 990 Reference Units/mL
- Interferon induction in mice (interferon; oral 1 mg/kg, 2 hr): <260 Reference Units/mL
- Interferon induction in mice (interferon; oral 1 mg/kg, 4 hr): <260 Reference Units/mL
- Interferon induction in mice (interferon; oral 3 mg/kg, 1 hr): 1000 Reference Units/mL
- Interferon induction in mice (interferon; oral 3 mg/kg, 2 hr): 1500 Reference Units/mL
- Interferon induction in mice (interferon; oral 3 mg/kg, 4 hr): <260 Reference Units/mL
- Interferon induction in mice (interferon; oral 10 mg/kg, 1 hr): 1800 Reference Units/mL
- Interferon induction in mice (interferon; oral 10 mg/kg, 2 hr): 1600 Reference Units/mL
- Interferon induction in mice (interferon; oral 10 mg/kg, 4 hr): 790 Reference Units/mL
- log reduction at 0.1 µg/mL [1]: 3
- log reduction at 0.5 µg/mL [1]: 4
- log reduction at 1 µg/mL [1]: 7
- Interferon-α induction (interferon-α [2]; dose concentration 0.10 μg/mL): 3000 α Reference Units/mL
- Interferon-α induction (interferon-α [2]; dose concentration 0.50 μg/mL): 430 α Reference Units/mL
- Interferon-α induction (interferon-α [2]; dose concentration 1.0 μg/mL): 430 α Reference Units/mL
- Interferon-α induction (interferon-α [2]; dose concentration 5.0 μg/mL): 760 α Reference Units/mL

Structure (SMILES): COCc1nc2c(N)nc3ccccc3c2n1CC(C)(C)O [Example 96, 4-Amino-α,α-dimethyl-2-methoxymethyl-1H-imidazo[4,5-c]quinoline-1-ethanol]
- Interferon induction in mice (interferon; oral 0.3 mg/kg, 1 hr): 2900 Reference Units/mL
- Interferon induction in mice (interferon; oral 0.3 mg/kg, 2 hr): 3400 Reference Units/mL
- Interferon induction in mice (interferon; oral 0.3 mg/kg, 4 hr): 620 Reference Units/mL
- Interferon induction in mice (interferon; oral 1 mg/kg, 1 hr): 3200 Reference Units/mL
- Interferon induction in mice (interferon; oral 1 mg/kg, 2 hr): 5000 Reference Units/mL
- Interferon induction in mice (interferon; oral 1 mg/kg, 4 hr): 1100 Reference Units/mL
- Interferon induction in mice (interferon; oral 3 mg/kg, 1 hr): 3000 Reference Units/mL
- Interferon induction in mice (interferon; oral 3 mg/kg, 2 hr): 10000 Reference Units/mL
- Interferon induction in mice (interferon; oral 3 mg/kg, 4 hr): 960 Reference Units/mL
- Interferon induction in mice (interferon; oral 10 mg/kg, 1 hr): 2900 Reference Units/mL
- Interferon induction in mice (interferon; oral 10 mg/kg, 2 hr): 4700 Reference Units/mL
- Interferon induction in mice (interferon; oral 10 mg/kg, 4 hr): ˜350 Reference Units/mL
- log reduction at 0.1 µg/mL [1]: 6
- log reduction at 0.5 µg/mL [1]: 5
- log reduction at 1 µg/mL [1]: 5
- Interferon-α induction (interferon-α [2]; dose concentration 0.01 μg/mL): <6.4 α Reference Units/mL
- Interferon-α induction (interferon-α [2]; dose concentration 0.05 μg/mL): 44 α Reference Units/mL
- Interferon-α induction (interferon-α [2]; dose concentration 0.10 μg/mL): 1200 α Reference Units/mL
- Interferon-α induction (interferon-α [2]; dose concentration 0.50 μg/mL): 460 α Reference Units/mL
- Interferon-α induction (interferon-α [2]; dose concentration 1.0 μg/mL): 1000 α Reference Units/mL
- Interferon-α induction (interferon-α [2]; dose concentration 5.0 μg/mL): 900 α Reference Units/mL

Structure (SMILES): CC(C)Cn1c(C(C)(C)O)nc2c(N)nc3ccccc3c21 [Example 23, 4-Amino-α,α-dimethyl-1-(2-methylpropyl)-1H-imidazo[4,5-c]quinoline-2-methanol]
- Interferon-α induction (interferon-α [3]; dose concentration 0.10 μg/mL): <1.8 α Reference Units/mL
- Interferon-α induction (interferon-α [3]; dose concentration 0.50 μg/mL): <1.8 α Reference Units/mL
- Interferon-α induction (interferon-α [3]; dose concentration 1.0 μg/mL): 84 α Reference Units/mL
- Interferon-α induction (interferon-α [3]; dose concentration 5.0 μg/mL): 250 α Reference Units/mL
- Interferon induction in mice (interferon; oral 30 mg/kg, 1 hr): 1200 Reference Units/mL
- Interferon induction in mice (interferon; oral 30 mg/kg, 2 hr): 1200 Reference Units/mL
- Interferon induction in mice (interferon; oral 30 mg/kg, 4 hr): 140 Reference Units/mL

Structure (SMILES): COC(C)c1nc2c(N)nc3ccccc3c2n1CC(C)C (centres unmarked) [Example 66, 2-(1-Methoxyethyl)-1-(2-methylpropyl)-1H-imidazo[4,5-c]quinolin-4-amine]
- Interferon induction in mice (interferon; oral 0.3 mg/kg, 1 hr): <56 Reference Units/mL
- Interferon induction in mice (interferon; oral 0.3 mg/kg, 2 hr): <56 Reference Units/mL
- Interferon induction in mice (interferon; oral 0.3 mg/kg, 4 hr): <56 Reference Units/mL
- Interferon induction in mice (interferon; oral 1 mg/kg, 1 hr): <56 Reference Units/mL
- Interferon induction in mice (interferon; oral 1 mg/kg, 2 hr): <56 Reference Units/mL
- Interferon induction in mice (interferon; oral 1 mg/kg, 4 hr): <56 Reference Units/mL
- Interferon induction in mice (interferon; oral 3 mg/kg, 1 hr): <74 Reference Units/mL
- Interferon induction in mice (interferon; oral 3 mg/kg, 2 hr): <120 Reference Units/mL
- Interferon induction in mice (interferon; oral 3 mg/kg, 4 hr): <56 Reference Units/mL
- Interferon induction in mice (interferon; oral 10 mg/kg, 1 hr): 1100 Reference Units/mL
- Interferon induction in mice (interferon; oral 10 mg/kg, 2 hr): 2600 Reference Units/mL
- Interferon induction in mice (interferon; oral 10 mg/kg, 4 hr): 380 Reference Units/mL
- log reduction at 0.1 µg/mL [1]: 2
- log reduction at 0.5 µg/mL [1]: 2
- log reduction at 1 µg/mL [1]: 3
- Interferon-α induction (interferon-α [2]; dose concentration 0.10 μg/mL): <5 α Reference Units/mL
- Interferon-α induction (interferon-α [2]; dose concentration 0.50 μg/mL): <5 α Reference Units/mL
- Interferon-α induction (interferon-α [2]; dose concentration 1.0 μg/mL): 1000 α Reference Units/mL
- Interferon-α induction (interferon-α [2]; dose concentration 5.0 μg/mL): 1000 α Reference Units/mL

Structure (SMILES): CCOCc1nc2c(N)nc3cc(Cl)ccc3c2n1CC(C)(C)O [Example 85, 4-Amino-7-chloro-α,α-dimethyl-2-ethoxymethyl-1H-imidazo[4,5-c]quinoline-1-ethanol]
- Interferon induction in mice (interferon; oral 0.3 mg/kg, 1 hr): 670 Reference Units/mL
- Interferon induction in mice (interferon; oral 0.3 mg/kg, 2 hr): 670 Reference Units/mL
- Interferon induction in mice (interferon; oral 0.3 mg/kg, 4 hr): <250 Reference Units/mL
- Interferon induction in mice (interferon; oral 1 mg/kg, 1 hr): ˜980 Reference Units/mL
- Interferon induction in mice (interferon; oral 1 mg/kg, 2 hr): 3900 Reference Units/mL
- Interferon induction in mice (interferon; oral 1 mg/kg, 4 hr): ≦330 Reference Units/mL
- Interferon induction in mice (interferon; oral 3 mg/kg, 1 hr): 1500 Reference Units/mL
- Interferon induction in mice (interferon; oral 3 mg/kg, 2 hr): 4300 Reference Units/mL
- Interferon induction in mice (interferon; oral 3 mg/kg, 4 hr): ˜430 Reference Units/mL
- Interferon induction in mice (interferon; oral 10 mg/kg, 1 hr): 2200 Reference Units/mL
- Interferon induction in mice (interferon; oral 10 mg/kg, 2 hr): 5700 Reference Units/mL
- Interferon induction in mice (interferon; oral 10 mg/kg, 4 hr): ˜570 Reference Units/mL
- log reduction at 0.1 µg/mL [1]: 5
- log reduction at 0.5 µg/mL [1]: 5
- log reduction at 1 µg/mL [1]: 5
- Interferon-α induction (interferon-α [2]; dose concentration 0.10 μg/mL): 86 α Reference Units/mL
- Interferon-α induction (interferon-α [2]; dose concentration 0.50 μg/mL): 100 α Reference Units/mL
- Interferon-α induction (interferon-α [2]; dose concentration 1.0 μg/mL): 220 α Reference Units/mL
- Interferon-α induction (interferon-α [2]; dose concentration 5.0 μg/mL): 230 α Reference Units/mL

Structure (SMILES): CC(=O)NCc1nc2c(N)nc3ccccc3c2n1CC(C)C [Example 15, N-Acetyl-4-amino-1-(2-methylpropyl)-1H-imidazo-[4,5-c]quinoline-2-methanamine]
- Interferon induction in mice (interferon; oral 0.3 mg/kg, 1 hr): <120 Reference Units/mL
- Interferon induction in mice (interferon; oral 0.3 mg/kg, 2 hr): <120 Reference Units/mL
- Interferon induction in mice (interferon; oral 0.3 mg/kg, 4 hr): <120 Reference Units/mL
- Interferon induction in mice (interferon; oral 1 mg/kg, 1 hr): <120 Reference Units/mL
- Interferon induction in mice (interferon; oral 1 mg/kg, 2 hr): <120 Reference Units/mL
- Interferon induction in mice (interferon; oral 1 mg/kg, 4 hr): <120 Reference Units/mL
- Interferon induction in mice (interferon; oral 3 mg/kg, 1 hr): <120 Reference Units/mL
- Interferon induction in mice (interferon; oral 3 mg/kg, 2 hr): 270 Reference Units/mL
- Interferon induction in mice (interferon; oral 3 mg/kg, 4 hr): <120 Reference Units/mL
- Interferon induction in mice (interferon; oral 10 mg/kg, 1 hr): 270 Reference Units/mL
- Interferon induction in mice (interferon; oral 10 mg/kg, 2 hr): 3100 Reference Units/mL
- Interferon induction in mice (interferon; oral 10 mg/kg, 4 hr): 270 Reference Units/mL
- log reduction at 1 µg/mL [1]: 6
- log reduction at 5 µg/mL [1]: 5
- log reduction at 10 µg/mL [1]: 5
- Interferon-α induction (interferon-α [2]; dose concentration 0.10 μg/mL): <1.8 α Reference Units/mL
- Interferon-α induction (interferon-α [2]; dose concentration 0.50 μg/mL): 250 α Reference Units/mL
- Interferon-α induction (interferon-α [2]; dose concentration 1.0 μg/mL): 430 α Reference Units/mL
- Interferon-α induction (interferon-α [2]; dose concentration 5.0 μg/mL): 750 α Reference Units/mL
